Measurements as given in patent publication US20230174464A1, “MYRISTOYL DERIVATIVES OF 9-AMINO-DOXYCYCLINE FOR TARGETING CANCER STEM CELLS AND PREVENTING METASTASIS” (LUNELLA BIOTECH, INC., priority 2020, published 2023).
Where two headings read alike, the source gives them in different places.

Tests used:
MCF7 cells [1] = test: Cell proliferation, xCELLigence RTCA; type: cell-based, human; settings: MCF7 2D-monolayers, relative to control (no treatment)
Description: Cell Proliferation: Briefly, MCF7 cells or hTERT-BJ1 fibroblasts were seeded in each well (10,000 cells/well) and employed to assess the efficacy of Doxycycline and Doxy-Myr, using RTCA (real-time cell analysis), via the measurement of cell-induced electrical impedance plate (Acea Biosciences Inc.). This approach allows the quantification of the onset and kinetics of the cellular response. Experiments were repeated several times independently, using quadruplicate samples for each condition.

E. coli (ATCC 25922) = test: Bacterial growth assay (broth microdilution, resazurin); type: cell-based, Escherichia coli; settings: Gram-negative, 100-0.78 μM
Description: (§1) Bacterial Growth Assays: Briefly, antibiotic activity was assessed using standard assay systems. The antibiotic activity of Doxycycline analogues was determined experimentally, using Resazurin (R7017; Sigma-Aldrich, Inc.) as a probe, in a 96-well plate format, using standard strains of E. coli and S. aureus. The minimum inhibitory concentration (MIC) for the studied compounds was determined using the broth microdilution method, the reference susceptibility test for rapidly growing aerobic or facultative microorganism. The assays were performed according to the Clinical and Laboratory Standards Institute (CLSI) guidelines. The test compounds and positive control (doxycycline, Sigma Aldrich #D1822) stock solutions were prepared at 25 mM in DMSO and serially diluted (2-fold dilution from 200-1.56 tiM) in cation adjusted Mueller Hinton Broth (MHB, Sigma Aldrich #90922) in 96 well transparent plates (VWR #734-2781) into a final volume of 50 μL/well. Staphylococcus aureus (ATCC 29213) and E. coli (ATCC 25922) cultures were grown overnight at 37° C. in Mueller Hinton Agar (MHA, Sigma Aldrich #70191). A single colony of each strain was then grown overnight at 37° C. in MHB until OD600˜0.6-0.8 and further diluted into MHB to a concentration of […] colony forming units (CFU)/mL, which was equivalent to an OD600˜0.01. Then, 50 μL of the diluted inoculums was transferred to the wells of the previously prepared 96-well plates containing the test compounds, negative control (1% DMSO in MHB) and positive control (doxycycline). Final wells volume was 100 μL, final concentrations for the testing compounds were between 100-0.78 μM and final microorganism concentration was 5×10^5 CFU/mL. Subsequently, 10 uL of one negative control well was plated in a petri dish containing MHA to check CFU and the purity of the cultures. The plates were incubated at 37° C. for 24 h after which 20 tit of resazurin solution (0.2 mg/mL) was added to the wells followed by 1 h30 min incubation at 37° C. The OD570 and OD600 were measured in a microplate reader (BMG FLUOstar Omega). […] MIC values were determined by three independent experiments.

chick embryo = test: CAM assay, embryo tolerability / toxicity; type: in vivo; settings: for Alive / Dead: number of embryos
Description: a) Preparation of Chicken Embryos. […] At that moment (E9), the chorioallantoic membrane (CAM) was dropped down by drilling a small hole through the eggshell into the air sac, and a 1 cm^2 window was cut in the eggshell above the CAM.
e) Embryo Tolerability Assay. Before each administration, the treatment tolerability was evaluated by scoring the number of dead embryos.

MCF7 CSCs = test: 3D-mammosphere formation assay; type: cell-based, human; settings: for IC50: 5 days, non-adherent conditions, read-out: IC50 for inhibiting 3D anchorage-independent propagation (mammosphere formation)
Description: For the 3D-Mammosphere Assay, a single cell suspension of MCF7 cells was prepared using enzymatic (lx Trypsin-EDTA, Sigma Aldrich) and manual disaggregation (25-gauge needle). Cells were then plated at a density of 500 cells/cm^2 in mammosphere medium (DMEM-F12/B27/EGF (20-ng/ml)/PenStrep) in non-adherent conditions, in culture dishes coated with (2-hydroxyethylmethacrylate) (poly-HEMA, Sigma). Cells were grown for 5 days and maintained in a humidified incubator at 37° C. at an atmospheric pressure in 5% (v/v) carbon dioxide/air. After 5 days in culture, spheres>50 μm were counted using an eye-piece graticule, and the percentage of cells plated which formed spheres was calculated and is referred to as percent mammosphere formation, normalized to vehicle-alone treated controls. Mammosphere assays were performed in triplicate and repeated three times independently.

[2] = test system: normal human fibroblasts (hTERT-BJ1); test: Cell viability (SRB) assay, normal fibroblasts 2D-monolayers; type: cell-based; settings: hTERT-BJ1 2D-monolayers, 3 days, 5 to 20 μM
Description: (§2) Cell Viability Assay: The Sulphorhodamine (SRB) assay is based on the measurement of cellular protein content. After treatment for 72 h in 96-well plates, (8,000 cells/well), cells were fixed with 10% trichloroacetic acid (TCA) for 1 hour in the cold room, and were dried overnight at room temperature. Then, cells were incubated with SRB for 15 min, washed twice with 1% acetic acid, and air dried for at least 1 hour. Finally, the protein-bound dye was dissolved in a 10 mM Tris, pH 8.8, solution and read using the plate reader at 540-nm.

MCF7 cells [3] = test: Cell cycle analysis (FACS); type: cell-based, human; settings: MCF7 2D-monolayers, 72 hours, 10 μM
Description: Cell Cycle Analysis: Performed on MCF7 cells treated with Doxycycline, Doxy-Myr or vehicle-alone. Briefly, after trypsinization, the re-suspended cells were incubated with 10 ng/ml of Hoechst solution (Thermo Fisher Scientific) for 40 min at 37° C. under dark conditions. Following a 40 min period, the cells were washed and re-suspended in PBS Ca/Mg for acquisition on the Attune NxT flow cytometer (Thermo Scientific). 10,000 events per condition were analyzed. Gated cells were manually-categorized into cell-cycle stages.

MCF7 cells [4] = test: Cell viability (SRB) assay, MCF7 2D-monolayers; type: cell-based, human; settings: 3 days, 5 to 20 μM
Description: as §2

[5] = test system: Staphylococcus aureus (ATCC 29213); test: Bacterial growth assay (broth microdilution, resazurin); type: cell-based; settings: S. aureus, Gram-positive, 100-0.78 μM
Description: as §1

[6] = test system: CSC burden in early breast cancer patients; settings: oral 200 mg/day for 14 days; cited from earlier work

Row | IC50 (MCF7 CSCs; Homo sapiens, MCF7, 120 h) [µM] | SMILES | effect on proliferation (MCF7 cells [1]) | antibiotic activity (growth inhibition) (E. coli (ATCC 25922)) | % Dead (chick embryo; 0.125 mM) [%] | Dead (chick embryo; 0.125 mM) | % Dead (chick embryo; 0.250 mM) [%] | Dead (chick embryo; 0.250 mM) | effect on cell viability [2] | effect on cell viability (MCF7 cells [4]) | antibiotic activity (growth inhibition) [5] | also measured
1 |  | CCCCCCCCCCCCCC(=O)Nc1ccc2c(c1O)C(=O)C1=C(O)[C@]3(O)C(=O)C(C(N)=O)=C(O)[C@@H](N(C)C)C3[C@@H](O)C1[C@H]2C (stereo partly drawn) [Doxy-Myr, (4S,5S,6R,12aS)-4-(dimethylamino)-3,5,10,12,12a-pentahydroxy-6-methyl-1,11-dioxo-9-(tetradecanoylamino)-4a,5,5a,6-tetrahydro-4H-tetracene-2-carboxamide] | did not inhibit the proliferation | did not show any antibiotic activity | 21.43 | 3 | 7.69 | 1 | no appreciable effects on cell viability | no appreciable effects on cell viability | did not show any antibiotic activity | % Alive (chick embryo; 0.125 mM): 78.57%; Alive (chick embryo; 0.125 mM): 11; % Alive (chick embryo; 0.250 mM): 92.31%; Alive (chick embryo; 0.250 mM): 12; embryo toxicity (chick embryo; CAM assay): little-to-no embryo toxicity; IC50 (MCF7 CSCs): 3.46 µM; effect on cell cycle progression (MCF7 cells [3]): did not have any significant effects on reducing cell cycle progression
2 |  | C[C@H]1c2cccc(O)c2C(=O)C2=C(O)[C@]3(O)C(=O)C(C(N)=O)=C(O)[C@@H](N(C)C)C3[C@@H](O)C21 (stereo partly drawn) [Doxycycline, (4S,5 S,6R,12aS)-4-(dimethylamino)-3,5,10,12,12a-pentahydroxy-6-methyl-1,11-dioxo-4a,5,5 a,6-tetrahydro-4H-tetracene-2-carboxamide] | did not inhibit the proliferation | potently and effectively inhibits the growth | 15.38 | 2 | 23.08 | 3 | no appreciable effects on cell viability | no appreciable effects on cell viability | potently and effectively inhibits the growth | positive response rate [6]: ~90%; embryo toxicity (chick embryo; in vivo): little-to-no embryo toxicity
3 | 5.8 | CCCCCCCCCCCC(=O)Nc1ccc2c(c1O)C(=O)C1=C(O)[C@]3(O)C(=O)C(C(N)=O)=C(O)[C@@H](N(C)C)C3[C@@H](O)C1[C@H]2C (stereo partly drawn) [Doxy-Laur, (4S,5S,6R,12aS)-4-(dimethylamino)-9-(dodecanoylamino)-3,5,10,12,12a-pentahydroxy-6-methyl-1,11-dioxo-4a,5,5a,6-tetrahydro-4H-tetracene-2-carboxamide] |  | did not show any antibiotic activity |  |  |  |  |  |  | did not show any antibiotic activity | 
4 |  | C[C@H]1c2ccc(NC(=O)CCCCC[P+](c3ccccc3)(c3ccccc3)c3ccccc3)c(O)c2C(=O)C2=C(O)[C@]3(O)C(=O)C(C(N)=O)=C(O)[C@@H](N(C)C)C3[C@@H](O)C21.C[C@H]1c2ccc(NC(=O)CCCCC[P+](c3ccccc3)(c3ccccc3)c3ccccc3)c(O)c2C(=O)C2=C(O)[C@]3(O)C(=O)C(C(N)=O)=C(O)[C@@H](N(C)C)C3[C@@H](O)C21.O=C([O-])C(=O)[O-] (stereo partly shown) [Doxy-TPP] |  |  |  |  |  |  |  |  |  | inhibitory potency compared with Doxycycline (MCF7 CSCs): not more potent that Doxycycline
5 | 10.4 | CCCCCCCCCCCCCCCC(=O)Nc1ccc2c(c1O)C(=O)C1=C(O)[C@]3(O)C(=O)C(C(N)=O)=C(O)[C@@H](N(C)C)C3[C@@H](O)C1[C@H]2C (stereo partly drawn) [Doxy-Pal, (4S,5S,6R,12 aS)-4-(dimethylamino)-9-(hexadecanoylamino)-3,5,10,12,12a-pentahydroxy-6-methyl-1,11-dioxo-4a,5,5 a,6-tetrahydro-4H-tetracene-2-carboxamide] |  | did not show any antibiotic activity |  |  |  |  |  |  | did not show any antibiotic activity | 
